Here are results for 33 compounds from patent US9802937B2, “Substituted pyrazolo{4,3-D}pyrimidines as kinase inhibitors” (ORIGENIS GMBH, priority 2011, dated 2017).

Bounds are passed on as bounds.

For the test, the target named is T1, SYK kinase (Homo sapiens, UniProt P43405).
T1 construct: purchased Invitrogen, Carlsbad
As to the kind of experiment: SYK Assay (OMNIA KINASE ASSAY, SOX peptide fluorescence). Format: biochemical. Conditions: apparent Ki calculated from the IC50 using the Cheng-Prusoff equation; 1 mM ATP, 30° C.; read-out: SYK Activities: Ki. On the procedure:
In the assay OMNIA® KINASE ASSAY by Invitrogen Corporation (Carlsbad) the effect of invention of a compound on the phosphorylation is determined by measurement of fluorescence intensity of a chelation-enhanced fluorophore called SOX. Upon phosphorylation of the peptide by the kinase of interest, Mg2+ is chelated to form a bridge between the SOX moiety and the phosphate group that is transferred to the specific tyrosine on the peptide. The fluorescence intensity is directly proportional to the amount of peptide phosphorylation.
To the wells of an 384 well small volume plate (Greiner, Frickenhausen) are added (i) the compound under test in 5% DMSO/distilled water (2 μl), (ii) 16 μl of the master mix containing ATP, DTT, Kinase Reaction Buffer, Omina Peptide Substrate Tyr 7 resulting in a final concentration of 1 mM ATP, 0.2 mM DTT and 10 μM Peptide Substrate.
The Master Mix and the assay plate was incubated to reaction temperature before the measurement (30° C.). The reaction was started with addition of (iii) 2 μl 4 μg/ml SYK kinase (Invitrogen, Carlsbad). During measurement fluorescence intensitiy readings were collected using a TECAN M1000 at a wavelength of λex 360/λem 485 nm every 30 s for 30 minutes. The reaction velocity was plotted versus the inhibitor concentration to determine the […] using XLFit 5.0 (IDBS, Guildford) to fit to a sigmoidal dose response curve, and the apparent Ki values were calculated from the IC50 using the Cheng-Prusoff equation (Cheng, Y.; Prusoff, W. H. Biochem. Pharmacol. 22, 3099-3108, 1973).
`COc1ccc(Nc2nc(C(=O)c3ccccc3)nc3cn[nH]c23)cc1OC` [Example #153, (7-((3,4-dimethoxyphenyl)amino)-1H-pyrazolo[4,3-d]pyrimidin-5-yl)(phenyl)methanone]: the Ki was 0.1 to 1 µM.

Consider `COC(=O)c1cccc(-c2nc(Nc3ccc4c(c3)NC(=O)CS4)c3[nH]ncc3n2)c1` [Example #216, methyl 3-(7-((3-oxo-3,4-dihydro-2H-benzo[b][1,4]thiazin-6-yl)amino)-1H-pyrazolo[4,3-d]pyrimidin-5-yl)benzoate], for which the Ki is 0.01 to 0.1 µM.

For the compound `c1cncc(-c2cccc(-c3nc(Nc4cc(C5CC5)[nH]n4)c4[nH]ncc4n3)c2)c1` [Example #100, N-(5-cyclopropyl-1H-pyrazol-3-yl)-5-(3-(pyridin-3-yl)phenyl)-1H-pyrazolo[4,3-d]pyrimidin-7-amine], the Ki was 0.01 to 0.1 µM.

Take `c1cncc(-c2cccc(-c3nc(Nc4ccc5c(c4)NCCO5)c4[nH]ncc4n3)c2)c1` [Example #103, N-(5-(3-(pyridin-3-yl)phenyl)-1H-pyrazolo[4,3-d]pyrimidin-7-yl)-3,4-dihydro-2H-benzo[b][1,4]oxazin-6-amine]: the Ki is 0.01 to 0.1 µM.

With `CCN1CCN(c2ccc(Nc3nc(-c4cn5ccccc5n4)nc4cn[nH]c34)cc2)CC1` [Example #125, N-(4-(4-ethylpiperazin-1-yl)phenyl)-5-(imidazo[1,2-a]pyridin-2-yl)-1H-pyrazolo[4,3-d]pyrimidin-7-amine], the Ki was 0.01 to 0.1 µM.

Regarding `CN1CCN(c2ccc(Nc3nc(-c4cccc(-c5nn[nH]n5)c4)nc4cn[nH]c34)cc2)CC1` [Example #149, 5-(3-(2H-tetrazol-5-yl)phenyl)-N-(4-(4-methylpiperazin-1-yl)phenyl)-1H-pyrazolo[4,3-d]pyrimidin-7-amine], the Ki is less than 0.01 µM.

As for `O=C1COc2ccc(Nc3nc(-c4cccc(C(=O)O)c4)nc4cn[nH]c34)cc2N1` [Example #212, 3-(7-((3-oxo-3,4-dihydro-2H-benzo[b][1,4]oxazin-6-yl)amino)-1H-pyrazolo[4,3-d]pyrimidin-5-yl)benzoic acid], the Ki is 0.01 to 0.1 µM.

In the case of `CN1CCC(c2nc(Nc3ccc(N4CCCC4)cc3)c3[nH]ncc3n2)CC1` [Example #56, 5-(1-methylpiperidin-4-yl)-N-(4-(pyrrolidin-1-yl)phenyl)-1H-pyrazolo[4,3-d]pyrimidin-7-amine], the Ki was 0.1 to 1 µM.

For the compound `c1csc(-c2nc(Nc3cc(C4CC4)[nH]n3)c3[nH]ncc3n2)c1` [Example #90, N-(5-cyclopropyl-1H-pyrazol-3-yl)-5-(thiophen-2-yl)-1H-pyrazolo[4,3-d]pyrimidin-7-amine], the Ki is 0.01 to 0.1 µM.

As to `CN1CCN(c2ccc(Nc3nc(-c4ncc[nH]4)nc4cn[nH]c34)cc2)CC1` [Example #141, 5-(1H-imidazol-2-yl)-N-(4-(4-methylpiperazin-1-yl)phenyl)-1H-pyrazolo[4,3-d]pyrimidin-7-amine], the Ki is 0.01 to 0.1 µM.

`CN(C)S(=O)(=O)c1ccc(Nc2nc(-c3cccs3)nc3cn[nH]c23)cc1` [Example #260, N,N-dimethyl-4-((5-(thiophen-2-yl)-1H-pyrazolo[4,3-d]pyrimidin-7-yl)amino)benzenesulfonamide]: the Ki is 0.01 to 0.1 µM.

`COc1ccc(-c2nc(Nc3ccc(N4CCSCC4)cc3)c3[nH]ncc3n2)cc1` [Example #168, 5-(4-methoxyphenyl)-N-(4-thiomorpholinophenyl)-1H-pyrazolo[4,3-d]pyrimidin-7-amine]: the Ki was 0.01 to 0.1 µM.

For the compound `CN1CCN(c2ccc(Nc3nc(-c4cccc(C(=O)O)n4)nc4cn[nH]c34)cc2)CC1` [Example #177, 6-(7-((4-(4-methylpiperazin-1-yl)phenyl)amino)-1H-pyrazolo[4,3-d]pyrimidin-5-yl)picolinic acid], the Ki was 0.01 to 0.1 µM.

On to `COc1ccc(Nc2nc(-c3ccc(F)c(F)c3)nc3cn[nH]c23)cc1OC` [Example #272, 5-(3,4-difluorophenyl)-N-(3,4-dimethoxyphenyl)-1H-pyrazolo[4,3-d]pyrimidin-7-amine], for which the Ki was 0.1 to 1 µM.

For the compound `CN(C)CCNc1nc(C(=O)c2ccccc2)nc2cn[nH]c12` [Example #150, (7-((2-(dimethylamino)ethyl)amino)-1H-pyrazolo[4,3-d]pyrimidin-5-yl)(phenyl)methanone], the Ki is 0.1 to 1 µM.

For `COc1ccc(Nc2nc(-c3nc4ccccc4[nH]3)nc3cn[nH]c23)cc1OC` [Example #129, 5-(1H-benzo[d]imidazol-2-yl)-N-(3,4-dimethoxyphenyl)-1H-pyrazolo[4,3-d]pyrimidin-7-amine], the Ki was 0.01 to 0.1 µM.

Consider `CN1CCC(c2nc(Nc3ccc(Cl)cc3)c3[nH]ncc3n2)CC1` [Example #29, N-(4-chlorophenyl)-5-(1-methylpiperidin-4-yl)-1H-pyrazolo[4,3-d]pyrimidin-7-amine], for which the Ki is 0.01 to 0.1 µM.

As for `COc1ccc(Nc2nc(-c3cccc(SC)c3)nc3cn[nH]c23)cc1OC` [Example #223, N-(3,4-dimethoxyphenyl)-5-(3-(methylthio)phenyl)-1H-pyrazolo[4,3-d]pyrimidin-7-amine], the Ki was 0.01 to 0.1 µM.

For `COc1ccc(Nc2nc(-c3ccc(F)cc3F)nc3cn[nH]c23)cc1OC` [Example #285, 5-(2,4-difluorophenyl)-N-(3,4-dimethoxyphenyl)-1H-pyrazolo[4,3-d]pyrimidin-7-amine], the Ki is less than 0.01 µM.

For `CN(C)S(=O)(=O)c1cccc(Nc2nc(-c3cccs3)nc3cn[nH]c23)c1` [Example #264, N,N-dimethyl-3-((5-(thiophen-2-yl)-1H-pyrazolo[4,3-d]pyrimidin-7-yl)amino)benzenesulfonamide], the Ki was 0.1 to 1 µM.

With `N[C@@H]1CCCC[C@H]1Nc1nc(-c2ccsc2)nc2cn[nH]c12` [Example #115, (1R,2R)—N-(5-Thiophen-3-yl-1H-pyrazolo[4,3-d]pyrimidin-7-yl)-cyclohexane-1,2-diamine], the Ki is 0.1 to 1 µM.

Consider `O=S(=O)(c1cccc(Nc2nc(-c3cccs3)nc3cn[nH]c23)c1)N1CCOCC1` [Example #266, N-(3-(morpholinosulfonyl)phenyl)-5-(thiophen-2-yl)-1H-pyrazolo[4,3-d]pyrimidin-7-amine], for which the Ki is 0.1 to 1 µM.

For the compound `NC(=O)c1ccc(Nc2nc(-c3ccccc3)nc3cn[nH]c23)cc1` [Example #11, 4-((5-phenyl-1H-pyrazolo[4,3-d]pyrimidin-7-yl)amino)benzamide], the Ki was less than 0.01 µM.

For the compound `Clc1cccc(-c2nc(Nc3ccc(N4CCOCC4)cc3)c3[nH]ncc3n2)c1` [Example #231, 5-(3-chlorophenyl)-N-(4-morpholinophenyl)-1H-pyrazolo[4,3-d]pyrimidin-7-amine], the Ki was 0.01 to 0.1 µM.

Turning to `FC(F)(F)c1cccc(-c2nc(Nc3ccc(N4CCOCC4)cc3)c3[nH]ncc3n2)c1` [Example #229, N-(4-morpholinophenyl)-5-(3-(trifluoromethyl)phenyl)-1H-pyrazolo[4,3-d]pyrimidin-7-amine], the Ki is 0.01 to 0.1 µM.

As for `c1ccc2sc(-c3nc(Nc4ccc5cn[nH]c5c4)c4[nH]ncc4n3)nc2c1` [Example #98, 5-(benzo[d]thiazol-2-yl)-N-(1H-indazol-6-yl)-1H-pyrazolo[4,3-d]pyrimidin-7-amine], the Ki was less than 0.01 µM.

As for `COc1ccc(Nc2nc(-c3cn4ccccc4n3)nc3cn[nH]c23)cc1OC` [Example #124, N-(3,4-dimethoxyphenyl)-5-(imidazo[1,2-a]pyridin-2-yl)-1H-pyrazolo[4,3-d]pyrimidin-7-amine], the Ki was 0.01 to 0.1 µM.

With `COc1ccc(Nc2nc(-c3nc4ccccc4n3C)nc3cn[nH]c23)cc1OC` [Example #130, N-(3,4-dimethoxyphenyl)-5-(1-methyl-1H-benzo[d]imidazol-2-yl)-1H-pyrazolo[4,3-d]pyrimidin-7-amine], the Ki is 0.1 to 1 µM.

On to `COc1ccc(Nc2nc(-c3cccc(S(F)(F)(F)(F)F)c3)nc3cn[nH]c23)cc1OC` [Example #219, N-(3,4-dimethoxyphenyl)-5-(3-(pentafluorosulfanyl)phenyl)-1H-pyrazolo[4,3-d]pyrimidin-7-amine], for which the Ki is 0.1 to 1 µM.

On to `COc1ccc(Nc2nc(-c3cccc(N4CCOCC4)c3)nc3cn[nH]c23)cc1OC` [Example #107, N-(3,4-dimethoxyphenyl)-5-(3-morpholinophenyl)-1H-pyrazolo[4,3-d]pyrimidin-7-amine], for which the Ki is 0.01 to 0.1 µM.

`FC(F)(F)Oc1cccc(-c2nc(Nc3ccc(N4CCOCC4)cc3)c3[nH]ncc3n2)c1` [Example #227, N-(4-morpholinophenyl)-5-(3-(trifluoromethoxy)phenyl)-1H-pyrazolo[4,3-d]pyrimidin-7-amine]: the Ki was 0.01 to 0.1 µM.

On to `CN1CCC(c2nc(Nc3ccc(N4CCOCC4)cc3)c3[nH]ncc3n2)CC1` [Example #52, 5-(1-methylpiperidin-4-yl)-N-(4-morpholinophenyl)-1H-pyrazolo[4,3-d]pyrimidin-7-amine], for which the Ki is 0.01 to 0.1 µM.

With `CC(=O)N1CCN(c2ccc(Nc3nc(-c4ccc5c(c4)NC(=O)CO5)nc4cn[nH]c34)cc2)CC1` [Example #298, 6-(7-((4-(4-acetylpiperazin-1-yl)phenyl)amino)-1H-pyrazolo[4,3-d]pyrimidin-5-yl)-2H-benzo[b][1,4]oxazin-3(4H)-one], the Ki was less than 0.01 µM.
